Source: ChEMBL document CHEMBL1201862, “PubChem BioAssay data set” (2004)
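Step 1: Grow cells in 96-well plates. Step 2: Expose to compound for 48 hours at 5 concentrations. Step 3: Interpolate endpoints linearly; if unreached, use highest concentration. GI50 is the concentration that inhibits growth by half.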 Active and inactive are the calls of the source. Rule as the data show it: active = GI50 up to about 1.1 µM and inactive = higher.

Columns and labels:
Experiment in all cases: NCI tumour cell line growth inhibition, 48 h
OVCAR-4 = tested on: OVCAR-4
HCT-15 = tested on: HCT-15
NCI-H226 = tested on: NCI-H226
A549 = tested on: A549
MCF7 = tested on: MCF7
SK-MEL-28 = tested on: SK-MEL-28
EKVX = tested on: EKVX
K562 = tested on: K562
NCI-H23 = tested on: NCI-H23
T47D = tested on: T47D
OVCAR-8 = tested on: OVCAR-8
NCI-H460 = tested on: NCI-H460
HT-29 = tested on: HT-29
SN12C = tested on: SN12C
HL-60 = tested on: HL-60
SF-295 = tested on: SF-295
BT-549 = tested on: BT-549
NCI-H522 = tested on: NCI-H522
CAKI-1 = tested on: CAKI-1
HCT-116 = tested on: HCT-116

SMILES | GI50 (OVCAR-4) | GI50 (HCT-15) | GI50 (NCI-H226) | GI50 (A549) | GI50 (MCF7) | GI50 (SK-MEL-28) | GI50 (EKVX) | GI50 (K562) | GI50 (NCI-H23) | GI50 (T47D) | GI50 (OVCAR-8) | GI50 (NCI-H460) | GI50 (HT-29) | GI50 (SN12C) | GI50 (HL-60) | GI50 (SF-295) | GI50 (BT-549) | GI50 (NCI-H522) | GI50 (CAKI-1) | GI50 (HCT-116)
O=C(c1ccccc1Br)C(F)(F)F | > 100 µM (inactive) | > 100 µM | > 100 µM (inactive) | > 100 µM (inactive) | > 100 µM (inactive) | > 100 µM (inactive) | > 100 µM (inactive) | > 100 µM (inactive) | > 100 µM (inactive) | 48.5 µM (inactive) | > 100 µM (inactive) | > 100 µM (inactive) | > 100 µM (inactive) | > 100 µM (inactive) | > 100 µM (inactive) | > 100 µM (inactive) | > 100 µM (inactive) | > 100 µM (inactive) | > 100 µM (inactive) | > 100 µM (inactive)
COc1ccc(C(=O)NC2=C(Cl)C(=O)c3ccccc3C2=O)cc1 | 2.17 µM (inactive) | 0.482 µM | 1.82 µM (inactive) | 4.08 µM (inactive) | 2.75 µM (inactive) | 1.15 µM (inactive) | 5.3 µM (inactive) | 1.36 µM (inactive) | 1.6 µM (inactive) | 0.929 µM (active) | 3.32 µM (inactive) | 3.1 µM (inactive) | 4.41 µM (inactive) | 2.77 µM (inactive) | 0.336 µM (active) | 3.85 µM (inactive) | 2.02 µM (inactive) | 0.416 µM (active) | 2.3 µM (inactive) | 0.406 µM (active)
CC(C)=CCC/C(C)=C/COc1c2ccoc2cc2oc(=O)ccc12 [BERGAMOTTIN] | 41.4 µM (inactive) | 30.4 µM | 30.1 µM (inactive) | 24.9 µM (inactive) | 19.1 µM (inactive) | 59.2 µM (inactive) | 22.2 µM (inactive) | 22.4 µM (inactive) | 27.4 µM (inactive) | 19.3 µM (inactive) | 43.7 µM (inactive) | 29.9 µM (inactive) | 19.7 µM (inactive) | 38.3 µM (inactive) | 16.4 µM (inactive) | 25.4 µM (inactive) | 44.3 µM (inactive) | 19 µM (inactive) | 44 µM (inactive) | 23.8 µM (inactive)
CC(=O)OCCn1c(Cc2ccc(C)cc2)nn(C(C)=O)c1=O | > 100 µM (inactive) | > 100 µM | > 100 µM (inactive) | > 100 µM (inactive) | > 100 µM (inactive) | > 100 µM (inactive) | > 100 µM (inactive) | > 100 µM (inactive) | > 100 µM (inactive) | > 100 µM (inactive) | > 100 µM (inactive) | > 100 µM (inactive) | > 100 µM (inactive) | > 100 µM (inactive) | > 100 µM (inactive) | > 100 µM (inactive) | > 100 µM (inactive) | > 100 µM (inactive) | > 100 µM (inactive) | > 100 µM (inactive)
c1ccc(NN/N=N/c2ccc(-c3nc4ccccc4[nH]3)cc2)cc1 | 23.4 µM (inactive) | 13 µM | 36.9 µM (inactive) | 37 µM (inactive) | 15.3 µM (inactive) | 35.8 µM (inactive) | 39.4 µM (inactive) | 8.43 µM (inactive) | 32.5 µM (inactive) | 8.17 µM (inactive) | 36 µM (inactive) | 27 µM (inactive) | 25 µM (inactive) | 32.2 µM (inactive) | 22 µM (inactive) | 25.6 µM (inactive) | 29.4 µM (inactive) | 24.7 µM (inactive) | 30.1 µM (inactive) | 28 µM (inactive)
CN(N)/N=N/c1[nH]cnc1C(N)=O | 3.53 µM (inactive) | 22.8 µM | 23.4 µM (inactive) | > 100 µM (inactive) | 48.4 µM (inactive) | > 100 µM (inactive) | 36.1 µM (inactive) | 1.92 µM (inactive) | 50.4 µM (inactive) | > 34.5 µM (inactive) | 3.14 µM (inactive) | 13.2 µM (inactive) | 99.8 µM (inactive) | 4.82 µM (inactive) | 0.531 µM (active) | 6.14 µM (inactive) | 42.2 µM (inactive) | 30.5 µM (inactive) | 4.24 µM (inactive) | 9.12 µM (inactive)
COc1cc(O)c(/C=N/N=C(\N)NO)c(OC)c1 | > 10 µM (inactive) | 5.04 µM | 5.11 µM (inactive) | > 10 µM (inactive) | > 10 µM (inactive) | > 10 µM (inactive) | > 10 µM (inactive) | > 10 µM (inactive) | > 10 µM (inactive) | > 10 µM (inactive) | > 10 µM (inactive) | 4.08 µM (inactive) | 6.31 µM (inactive) | > 10 µM (inactive) | > 10 µM (inactive) | 4.92 µM (inactive) | > 10 µM (inactive) | > 10 µM (inactive) | > 10 µM (inactive) | 6.19 µM (inactive)
O=c1[nH]c(=O)n(C2CC(O)C(CO)O2)cc1OCC1CCCCC1 (stereo not given) | > 100 µM (inactive) | > 100 µM | > 100 µM (inactive) | > 100 µM (inactive) | > 100 µM (inactive) | > 100 µM (inactive) | > 100 µM (inactive) | > 100 µM (inactive) | > 100 µM (inactive) | > 100 µM (inactive) | > 100 µM (inactive) | > 100 µM (inactive) | > 100 µM (inactive) | > 100 µM (inactive) | > 100 µM (inactive) | > 100 µM (inactive) | > 100 µM (inactive) | > 100 µM (inactive) | > 100 µM (inactive) | > 100 µM (inactive)
C[C@@H](c1ccccc1)N1CN(C(=O)OCc2ccccc2)C(C)(C)CC1=O | > 100 µM (inactive) | > 100 µM | > 100 µM (inactive) | > 100 µM (inactive) | > 100 µM (inactive) | 56.9 µM (inactive) | > 100 µM (inactive) | > 100 µM (inactive) | > 100 µM (inactive) | 50.6 µM (inactive) | > 100 µM (inactive) | > 100 µM (inactive) | > 100 µM (inactive) | > 100 µM (inactive) | 66.8 µM (inactive) | > 100 µM (inactive) | > 100 µM (inactive) | > 100 µM (inactive) | > 100 µM (inactive) | > 100 µM (inactive)
O=C1CCCC2C(O)CCC[C@H]12 (stereo not given in full) | > 100 µM (inactive) | > 100 µM | > 100 µM (inactive) | > 100 µM (inactive) | > 100 µM (inactive) | > 100 µM (inactive) | > 100 µM (inactive) | > 100 µM (inactive) | > 100 µM (inactive) | > 100 µM (inactive) | > 100 µM (inactive) | > 100 µM (inactive) | > 100 µM (inactive) | > 100 µM (inactive) | > 100 µM (inactive) | > 100 µM (inactive) | > 100 µM (inactive) | > 100 µM (inactive) | > 100 µM (inactive) | > 100 µM (inactive)
